Measured values reported in patent publication US20240041042A1, “1-(PYRIDYL)-5-AZINYLPYRAZOLE DERIVATIVES, AND THEIR USE FOR CONTROL OF UNDESIRED PLANT GROWTH” (Bayer Aktiengesellschaft, priority 2020, published 2024).
Where two headings read alike, the source gives them in different places.

Assays:
Format in all cases: in vivo
[1] = system: Alopecurus myosuroides (ALOMY); experiment: Pre-emergence herbicidal action against ALOMY; conditions: scored visually after about 3 weeks, 100% = plants have died
Summary of the method: (§1)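 Application rates ran to 320 g/ha or lower, with several dosages tested on the same weeds. The compound, as wettable powder or emulsion concentrate, is sprayed pre-emergence onto soil over sown seeds; greenhouse growth follows, and effect is rated visually after roughly 3 weeks.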

[2] = system: Echinochloa crus-galli (ECHCG); experiment: Pre-emergence herbicidal action against ECHCG; conditions: dosage 320 g/ha
Summary of the method: as §1

[3] = system: Pharbitis purpurea (PHBPU); experiment: Pre-emergence herbicidal action against PHBPU; conditions: dosage 320 g/ha
Summary of the method: as §1

[4] = system: Polygonum convolvulus (POLCO); experiment: Pre-emergence herbicidal action against POLCO
Summary of the method: as §1

[5] = system: Verconica persica (VERPE); experiment: Pre-emergence herbicidal action against VERPE; conditions: dosage 320 g/ha
Summary of the method: as §1

Viola tricolor (VIOTR) [6] = experiment: Pre-emergence herbicidal action against VIOTR
Summary of the method: as §1

Zea mays (ZEAMX) [7] = conditions: pre-emergence, 80 g/ha, crop plant compatibility, in comparison to untreated controls
From the text: Seeds of monocotyledonous and dicotyledonous weed plants and crop plants are placed in plastic or organic planting pots and covered with soil. The compounds of the invention, formulated in the form of wettable powders (WP) or as emulsion concentrates (EC), are then applied to the surface of the covering soil as aqueous suspension or emulsion with addition of 0.5% additive at a water application rate equivalent to 600 l/ha. After the treatment, the pots are placed in a greenhouse and kept under good growth conditions for the trial plants. After about 3 weeks, the effect of the preparations is scored visually in comparison with untreated controls as percentages. For example, 100% activity=the plants have died, 0% activity=like control plants.
The observed effects on selected crop plants are reported here in comparison to the untreated controls (values in %). The appendices “a” “b” and “c” give differentiation by dosage used with otherwise the same crop plants tested.

[8] = system: Abutilon theophrasti (ABUTH); experiment: Post-emergence herbicidal action against ABUTH; conditions: 320 g/ha, visual rating about 3 weeks after treatment vs untreated controls (100% = plants have died, 0% = like control plants)
Summary of the method: (§2)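 Post-emergence greenhouse spray, one-leaf stage, 600 l/ha water plus 0.5% additive; WP or EC formulations; application rates 320 g/ha or lower. Visual % damage vs untreated controls at ~3 weeks.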

[9] = system: Echinochloa crus-galli (ECHCG); experiment: Post-emergence herbicidal action against ECHCG
Summary of the method: as §2

[10] = system: Pharbitis purpurea (PHBPU); experiment: Post-emergence herbicidal action against PHBPU; conditions: dosage 320 g/ha
Summary of the method: as §2

Setaria viridis (SETVI) [11] = experiment: Post-emergence herbicidal action against SETVI
Summary of the method: as §2

[12] = system: Verconica persica (VERPE); experiment: Post-emergence herbicidal action against VERPE
Summary of the method: as §2

Oryza sativa (ORYSA) = conditions: crop plant compatibility
Summary of the method: (§3)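 One-leaf-stage crops (2–3 wk post-sowing, sandy loam, greenhouse) sprayed on green parts; 0.5% additive, 600 l/ha water. Rated by eye ~3 wk later, % vs untreated; suffixes a/b/c mark different dosages.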

Zea mays (ZEAMX) [13] = system: Zea mays (ZEAMX)
Summary of the method: as §3

[14] = system: Amaranthus retroflexus (AMARE); experiment: Pre-emergence herbicidal action against AMARE; conditions: visual scoring after about 3 weeks vs untreated controls
Summary of the method: as §1

Avena fatua (AVEFA) = experiment: Pre-emergence herbicidal action against AVEFA; conditions: 320 g/ha, visual scoring after about 3 weeks vs untreated controls
Summary of the method: as §1

Lolium rigidum (LOLRI) = experiment: Pre-emergence herbicidal action against LOLRI; conditions: dosage 320 g/ha
Summary of the method: as §1

[15] = system: Matricaria inodora (MATIN); experiment: Pre-emergence herbicidal action against MATIN; conditions: dosage 320 g/ha
Summary of the method: as §1

Setaria viridis (SETVI) [16] = experiment: Pre-emergence herbicidal action against SETVI; conditions: dosage 320 g/ha
Summary of the method: as §1

[17] = system: Alopecurus myosuroides (ALOMY); experiment: Post-emergence herbicidal action against ALOMY; conditions: 80 g/ha, visual rating about 3 weeks after treatment vs untreated controls (100% = plants have died, 0% = like control plants)
Summary of the method: as §2

[18] = system: Amaranthus retroflexus (AMARE); experiment: Post-emergence herbicidal action against AMARE
Summary of the method: as §2

[19] = system: Matricaria inodora (MATIN); experiment: Post-emergence herbicidal action against MATIN
Summary of the method: as §2

[20] = system: Polygonum convolvulus (POLCO); experiment: Post-emergence herbicidal action against POLCO; conditions: dosage 320 g/ha
Summary of the method: as §2

Viola tricolor (VIOTR) [21] = experiment: Post-emergence herbicidal action against VIOTR
Summary of the method: as §2

[22] = 80 g/ha, effect in comparison to untreated controls
[23] = 80 g/ha, visual rating about 3 weeks after treatment vs untreated controls (100% = plants have died, 0% = like control plants)

Pre-emergence action against ZEAMX in % (Zea mays (ZEAMX) [7])	Post-emergence action against ORYSA in % (Oryza sativa (ORYSA); [22])	SMILES	Pre-emergence action against ALOMY ([1]; 320 g/ha)	Pre-emergence action against ECHCG in % [2]	Pre-emergence action against PHBPU in % [3]	Pre-emergence action against POLCO in % ([4]; dosage 320 g/ha)	Pre-emergence action against VERPE in % [5]	Pre-emergence action against VIOTR in % (Viola tricolor (VIOTR) [6]; 320 g/ha, Viola tricolor)	Post-emergence action against ECHCG in % ([9]; dosage 80 g/ha)	Post-emergence action against ECHCG in % ([9]; dosage 320 g/ha)	Post-emergence action against PHBPU in % [10]	Post-emergence action against SETVI in % (Setaria viridis (SETVI) [11]; dosage 320 g/ha)	Post-emergence action against VERPE in % ([12]; dosage 80 g/ha)	Pre-emergence action against AMARE in % ([14]; 320 g/ha)	Pre-emergence action against LOLRI in % (Lolium rigidum (LOLRI))	Pre-emergence action against MATIN in % [15]	Pre-emergence action against SETVI in % (Setaria viridis (SETVI) [16])	Post-emergence action against AMARE in % [18, 23]	also measured
10%	10%	COCCOC(=O)COc1nn(-c2ncccc2C(F)(F)F)c(-c2cncc(F)c2)c1Br [Example I-157]	80%	80%	90%	90%	90%	100%	80%	90%	80%	80%	80%	–	–	–	–	–	Pre-emergence action against VIOTR in % (Viola tricolor (VIOTR) [6]; dosage 80 g/ha): 80%; Post-emergence action against ABUTH in % [8]: 80%; Post-emergence action against VERPE in % ([12]; 320 g/ha, VERPE): 90%; Post-emergence action against ZEAMX in % (Zea mays (ZEAMX) [13]; crop plant compatibility, 80 g/ha, effect vs untreated controls): 20%
0%	20%	O=C(COc1nn(-c2ccccn2)c(-c2ccc(F)nc2)c1Br)OCC1CCCO1 (centres unmarked) [Example I-93]	100%	100%	80%	90%	100%	100%	–	–	–	–	80%	100%	100%	100%	100%	80%	Pre-emergence action against ALOMY ([1]; 80 g/ha): 90%; Pre-emergence action against AMARE in % ([14]; 80 g/ha): 90%; Pre-emergence action against AVEFA in % (Avena fatua (AVEFA)): 90%; Pre-emergence action against POLCO in % ([4]; dosage 80 g/ha): 90%; Post-emergence action against ALOMY in % [17]: 100%; Post-emergence action against MATIN in % ([19]; dosage 80 g/ha): 80%; Post-emergence action against ORYSA in % (Oryza sativa (ORYSA); 20 g/ha, effect vs untreated controls): 10%; Post-emergence action against ZEAMX in % (crop plant compatibility) (Zea mays (ZEAMX) [13]; 20 g/ha, ZEAMX, effect in comparison to untreated controls): 20%
0%	0%	O=C(O)CSc1nn(-c2ccccn2)c(-c2cncc(F)c2)c1I [Example I-229]	–	90%	–	90%	–	90%	80%	80%	80%	80%	–	80%	80%	80%	90%	80%	Post-emergence action against AMARE in % ([18]; 320 g/ha, visual rating about 3 weeks after treatment): 80%; Post-emergence action against MATIN in % ([19]; dosage 320 g/ha): 80%; Post-emergence action against POLCO in % [20]: 80%; Post-emergence action against SETVI in % (Setaria viridis (SETVI) [11]; dosage 80 g/ha): 80%; Post-emergence action against VIOTR in % (Viola tricolor (VIOTR) [21]; 80 g/ha): 80%; Post-emergence action against VIOTR in % (Viola tricolor (VIOTR) [21]; 320 g/ha): 80%
